We go through 22 compounds from ChEMBL document CHEMBL5053526, “Synthesis and biological evaluation of cajanonic acid A derivatives as potential PPARγ antagonists” (2021).

Each structure is given as a SMILES string. The source made the active and inactive calls. No cut-off for these calls is given here.

One assay concerns HepG2. Kind of assay: Insulin-sensitizing activity in human HepG2 cells assessed as increase in glucose consumption at 10 uM relative to control. The assay is classed as functional.
Conditions: not given
Take `COc1cc(O)c(C(=O)O)c(CC(=O)c2ccccc2)c1CC=C(C)C`: the Activity came to 34%.
Take `COc1cc(CC(=O)c2ccc(Cl)cc2)c(C(=O)O)c(O)c1CC=C(C)C`: the Activity is given as 26.2%.
In the case of `COc1cc(O)c(C(=O)O)c(CS(=O)(=O)c2ccccc2)c1`, the Activity is given as -9.4%.
As for `CCc1ccc(CCOc2ccc(CC3SC(=O)NC3=O)cc2)nc1` (centres undefined) [PIOGLITAZONE], the Activity came out at 43.3%.
On to `COc1cc(O)c(C(=O)O)c(CC(=O)c2ccc(F)cc2)c1`, for which the Activity is -1%.
Take `COc1cc(O)c(C(=O)O)c(CC(=O)c2ccc(F)cc2)c1CC=C(C)C`: the Activity was found to be 39.7%.
Consider `COc1cc(CC(=O)c2ccc(Cl)cc2Cl)c(C(=O)O)c(O)c1CC=C(C)C`, for which the Activity is on record as 31.9%.
`COc1cc(CC(=O)c2cccs2)c(C(=O)O)c(O)c1CC=C(C)C`: the Activity was 19.1%.
Regarding `COc1cc(O)c(C(=O)O)c(CC(=O)c2ccc(Cl)cc2)c1CC=C(C)C`, the Activity was determined as 27.5%.
The same measure, in the same setting: with `COc1cc2c(c(OCC=C(C)C)c1)C(=O)N(Cc1ccc(F)c(Cl)c1)CC2` the figure was 36.9%; with `COc1cc(O)c(C(=O)O)c(CC(=O)c2ccc(Cl)cc2Cl)c1`, 10.2%.
The same measure, in the same setting: with `COc1cc2c(c(OCC=C(C)C)c1)C(=O)N(C(C)c1cccc(C(F)(F)F)c1)CC2` (centres undefined) the figure was 30.6%; with `COc1cc(O)c(C(=O)O)c(CC(=O)c2cccs2)c1`, 9.1%; with `COc1cc(O)c(C(=O)O)c(CC(=O)c2ccc(Cl)cc2Cl)c1CC=C(C)C`, 23.1%.
For the compound `COc1cc(CS(=O)(=O)c2ccccc2)c(C(=O)O)c(O)c1CC=C(C)C`, the Activity is on record as -3.4%.
In the case of `COc1cc(CC(=O)c2ccc(F)cc2)c(C(=O)O)c(O)c1CC=C(C)C`, the Activity is 45.6%.
On the same count and under the same terms, with `COc1cc(O)c(C(=O)O)c(CC(=O)c2cccs2)c1CC=C(C)C` the figure was 18%; with `COc1cc(O)c(C(=O)O)c(CC(=O)c2ccc(Cl)cc2)c1`, 16.3%.
Take `COc1cc2c(c(OCC=C(C)C)c1)C(=O)N(Cc1cccc(F)c1)CC2`: the Activity turned out to be 37.4%.
Turning to `COc1cc2c(c(OCC=C(C)C)c1)C(=O)N(Cc1cccc(C(F)(F)F)c1)CC2`, the Activity is recorded as 50.6%.
Take `COc1cc2c(c(OCC=C(C)C)c1)C(=O)N(C(C)c1ccccc1)CC2` (centres undefined): the Activity was found to be 28.5%.
Consider `COc1cc(O)c(C(=O)O)c(CS(=O)(=O)c2ccccc2)c1CC=C(C)C`, for which the Activity is listed as 4.9%.

Another assay is filed under the species Mus musculus. As to the kind of experiment: Hypoglycemic activity in db/db mouse assessed as improvement in oral glucose tolerance measured up to 120 mins by OGTT. The assay is classed as functional, organism-based.
Conditions: not given
Consider `COc1cc2c(c(OCC=C(C)C)c1)C(=O)N(Cc1cccc(C(F)(F)F)c1)CC2`, for which the outcome was Active.

A further assay deals with HepG2. As to the kind of experiment: Insulin-sensitizing activity in human HepG2 cells assessed as fold change in glucose consumption at 10 uM relative to CAA. It is filed as functional.
Conditions: not given
For the compound `COc1cc2c(c(OCC=C(C)C)c1)C(=O)N(Cc1cccc(C(F)(F)F)c1)CC2`, the “fold change (FC)” value turned out to be 1.5.

In a further assay the target is T1, Peroxisome proliferator-activated receptor gamma (Homo sapiens) (UniProt P37231).
T1 sequence (whole entry): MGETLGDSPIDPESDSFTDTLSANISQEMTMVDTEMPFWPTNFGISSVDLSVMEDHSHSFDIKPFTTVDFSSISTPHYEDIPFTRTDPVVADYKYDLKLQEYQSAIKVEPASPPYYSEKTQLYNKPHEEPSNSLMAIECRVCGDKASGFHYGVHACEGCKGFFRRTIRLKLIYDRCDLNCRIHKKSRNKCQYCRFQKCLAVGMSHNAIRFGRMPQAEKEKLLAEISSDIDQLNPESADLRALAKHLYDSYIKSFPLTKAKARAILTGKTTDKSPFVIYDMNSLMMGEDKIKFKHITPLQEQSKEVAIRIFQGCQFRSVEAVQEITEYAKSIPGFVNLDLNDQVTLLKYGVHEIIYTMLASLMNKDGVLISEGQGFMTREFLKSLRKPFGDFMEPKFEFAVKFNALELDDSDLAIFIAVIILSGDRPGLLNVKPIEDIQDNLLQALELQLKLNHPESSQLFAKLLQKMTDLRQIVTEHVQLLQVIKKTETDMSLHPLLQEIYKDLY
As to the kind of experiment: Antagonist activity at PPARgamma in HEK293 cells assessed as fold increase in suppression of rosiglitazone induced PPARgamma transactivation at 30 uM by dual-luciferase reporter gene assay relative to CAA. The assay is classed as cell-based.
Conditions: not given
(In general: Reporter assays use an easily measured gene product as a stand-in for the process of interest.)
Regarding `COc1cc2c(c(OCC=C(C)C)c1)C(=O)N(Cc1cccc(C(F)(F)F)c1)CC2`, the fold change (FC) worked out at 1.3.

The next assay deals with T1, Peroxisome proliferator-activated receptor gamma (Homo sapiens). Kind of assay: Antagonist activity at PPARgamma in HEK293 cells assessed as suppression of rosiglitazone induced PPARgamma transactivation at 30 uM by dual-luciferase reporter gene assay relative to control. Further details: scale not given: the % may be the effect or the level left.
Conditions: not given
The assay is classed as cell-based.
For the compound `COc1cc(CC(=O)c2ccc(Cl)cc2)c(C(=O)O)c(O)c1CC=C(C)C`, the Activity came out at 28.1%.
On to `COc1cc(O)c(C(=O)O)c(CS(=O)(=O)c2ccccc2)c1`, for which the Activity was -14%.
The same measure, in the same setting: to `COc1cc(O)c(C(=O)O)c(CC(=O)c2ccc(F)cc2)c1` belongs 6.3%; to `COc1cc(O)c(C(=O)O)c(CC(=O)c2ccc(Cl)cc2)c1CC=C(C)C`, 11.3%.
Regarding `COc1cc(O)c(C(=O)O)c(CC(=O)c2ccc(Cl)cc2Cl)c1`, the Activity came to 15.9%.
Same read-out and setting: to `COc1cc(O)c(C(=O)O)c(CC(=O)c2cccs2)c1` belongs 8.7%; to `COc1cc(CS(=O)(=O)c2ccccc2)c(C(=O)O)c(O)c1CC=C(C)C`, 1.9%.
As to `COc1cc(O)c(C(=O)O)c(CC(=O)c2ccc(Cl)cc2)c1`, the Activity is 12%.
Consider `COc1cc(O)c(C(=O)O)c(CS(=O)(=O)c2ccccc2)c1CC=C(C)C`, for which the Activity was -1%.

Staying with this assay, now noted: filed as antagonist.
On to `COc1cc(O)c(C(=O)O)c(CC(=O)c2ccccc2)c1CC=C(C)C`, for which the Activity was determined as 73.7%.
Regarding `COc1cc(O)c(C(=O)O)c(CC(=O)c2ccc(F)cc2)c1CC=C(C)C`, the Activity was 72.8%.
With `COc1cc(CC(=O)c2ccc(Cl)cc2Cl)c(C(=O)O)c(O)c1CC=C(C)C`, the Activity amounted to 83.2%.
Turning to `COc1cc(CC(=O)c2cccs2)c(C(=O)O)c(O)c1CC=C(C)C`, the Activity is 90.2%.
The same measure, in the same setting: with `COc1cc2c(c(OCC=C(C)C)c1)C(=O)N(Cc1ccc(F)c(Cl)c1)CC2` the figure was 61.1%; with `COc1cc2c(c(OCC=C(C)C)c1)C(=O)N(C(C)c1cccc(C(F)(F)F)c1)CC2` (centres undefined), 79.4%.
On to `COc1cc(O)c(C(=O)O)c(CC(=O)c2ccc(Cl)cc2Cl)c1CC=C(C)C`, for which the Activity came out at 54.3%.
For the compound `COc1cc(CC(=O)c2ccc(F)cc2)c(C(=O)O)c(O)c1CC=C(C)C`, the Activity is 93.4%.
On to `COc1cc(O)c(C(=O)O)c(CC(=O)c2cccs2)c1CC=C(C)C`, for which the Activity was 84.6%.
As to `COc1cc2c(c(OCC=C(C)C)c1)C(=O)N(Cc1cccc(F)c1)CC2`, the Activity stood at 75.1%.
`COc1cc2c(c(OCC=C(C)C)c1)C(=O)N(Cc1cccc(C(F)(F)F)c1)CC2`: the Activity stood at 98.2%.
Same read-out and setting: to `COc1cc2c(c(OCC=C(C)C)c1)C(=O)N(C(C)c1ccccc1)CC2` (centres undefined) belongs 81.7%.

In another assay the test system is HepG2. Kind of assay: Insulin-sensitizing activity in human HepG2 cells assessed as glucose consumption at 10 uM (Rvb= 2.04 +/- 0.12 mM). It is filed as functional.
Conditions: not given
Consider `COc1cc(O)c(C(=O)O)c(CC(=O)c2ccccc2)c1CC=C(C)C`, for which the Activity worked out at 2.73 mM.
Same read-out and setting: with `COc1cc(CC(=O)c2ccc(Cl)cc2)c(C(=O)O)c(O)c1CC=C(C)C` the figure was 2.59 mM; with `COc1cc(O)c(C(=O)O)c(CS(=O)(=O)c2ccccc2)c1`, 1.85 mM.
Consider `CCc1ccc(CCOc2ccc(CC3SC(=O)NC3=O)cc2)nc1` (centres undefined) [PIOGLITAZONE], for which the Activity worked out at 2.92 mM.
Still for that read-out and setting: to `COc1cc(O)c(C(=O)O)c(CC(=O)c2ccc(F)cc2)c1` belongs 2.02 mM; to `COc1cc(O)c(C(=O)O)c(CC(=O)c2ccc(F)cc2)c1CC=C(C)C`, 2.85 mM.
For `COc1cc(CC(=O)c2ccc(Cl)cc2Cl)c(C(=O)O)c(O)c1CC=C(C)C`, the Activity is listed as 2.69 mM.
`COc1cc(CC(=O)c2cccs2)c(C(=O)O)c(O)c1CC=C(C)C`: the Activity is 2.43 mM.
Take `COc1cc(O)c(C(=O)O)c(CC(=O)c2ccc(Cl)cc2)c1CC=C(C)C`: the Activity was 2.6 mM.
With `COc1cc2c(c(OCC=C(C)C)c1)C(=O)N(Cc1ccc(F)c(Cl)c1)CC2`, the Activity came to 2.79 mM.
For `COc1cc(O)c(C(=O)O)c(CC(=O)c2ccc(Cl)cc2Cl)c1`, the Activity was 2.25 mM.
Take `COc1cc2c(c(OCC=C(C)C)c1)C(=O)N(C(C)c1cccc(C(F)(F)F)c1)CC2` (centres undefined): the Activity was 2.66 mM.
Consider `COc1cc(O)c(C(=O)O)c(CC(=O)c2cccs2)c1`, for which the Activity is 2.24 mM.
Take `COc1cc(O)c(C(=O)O)c(CC(=O)c2ccc(Cl)cc2Cl)c1CC=C(C)C`: the Activity is listed as 2.52 mM.
For `COc1cc(CS(=O)(=O)c2ccccc2)c(C(=O)O)c(O)c1CC=C(C)C`, the Activity turned out to be 1.97 mM.
As for `COc1cc(CC(=O)c2ccc(F)cc2)c(C(=O)O)c(O)c1CC=C(C)C`, the Activity is 2.97 mM.
Regarding `COc1cc(O)c(C(=O)O)c(CC(=O)c2cccs2)c1CC=C(C)C`, the Activity was 2.41 mM.
Still for that read-out and setting: with `COc1cc(O)c(C(=O)O)c(CC(=O)c2ccc(Cl)cc2)c1` the figure was 2.37 mM.
Same read-out and setting: to `COc1cc2c(c(OCC=C(C)C)c1)C(=O)N(Cc1cccc(F)c1)CC2` belongs 2.8 mM; to `COc1cc2c(c(OCC=C(C)C)c1)C(=O)N(Cc1cccc(C(F)(F)F)c1)CC2`, 3.07 mM.
With `COc1cc2c(c(OCC=C(C)C)c1)C(=O)N(C(C)c1ccccc1)CC2` (centres undefined), the Activity was found to be 2.62 mM.
For the compound `COc1cc(O)c(C(=O)O)c(CS(=O)(=O)c2ccccc2)c1CC=C(C)C`, the Activity is given as 2.14 mM.

The next assay has as its system HepG2. As to the kind of experiment: Insulin-sensitizing activity in human HepG2 cells assessed as fold change in glucose consumption at 10 uM relative to pioglitazone. It is filed as functional.
Conditions: not given
`COc1cc2c(c(OCC=C(C)C)c1)C(=O)N(Cc1cccc(C(F)(F)F)c1)CC2`: the “fold change (FC)” value is 1.2.
